Laboratory results as given in patent US20230212225A1, “PEPTIDE COMPOSTIONS AND METHODS FOR TREATING TAUOPATHIES” (AXOLTIS PHARMA, priority 2019, published 2023).
Like-named read-outs stand apart in the source and are kept apart here. Where a SMILES comes first, the peptide text is derived from it. Bridges are numbered along the chain shown (N, C = ends).

Columns and labels:
[1] = system: Aβ25-35-induced long-term memory deficits; test: Step-through passive avoidance test (STPA), D09-D10; type: in vivo, mice
[2] = system: Aβ25-35-induced short-term memory deficits; test: Spontaneous alternation performance (Y-maze), treatment started 1 hour after Aβ25-35 injection, tested D08; type: in vivo, mice; settings: for Y-maze % (Sc.Aβ / Vhc = 100) / Y-maze Mean, percentage of alternation: D08
[3] = system: Aβ25-35-induced short-term memory deficits; test: Long-term study (120 days): weekly Y-maze, NX218 and/or DPZ based treatments; type: in vivo, mice
Method: To investigate the potential of NX218 treatment to maintain cognitive restoration for a longer duration and to work as a 2nd line treatment when DPZ lose its activity: a long-term study (120 days) was performed in the Aβ25-35 mouse model of Tauopathies.
Mice were assigned to 6 treatment groups with 5-6 animals per group as described below.
From D01 until D120, mice of groups 1 and 2 were administered IP once a day (o.d.) with vehicle (water for injection).
Test compound NX218: • From D11 until D38, mice of group 3 were administered IP o.d. with NX218 at 2 mg/kg (mice were not treated with vehicle from D01 until D10). • From D01 until D120, mice of group 4 were administered IP o.d. with NX218 at 2 mg/kg.
DPZ rescued by test compound NX218: • From D01, mice of group 5 were administered PO by gavage o.d with DPZ at its active dose (1 mg/kg) until its effect disappears. Its efficacy disappeared on D36. DPZ was administered until D43 and then from D44, NX218 replaced DPZ until D78 via IP administration once a day at its active dose (2 mg/kg). • From D79 until D99: NX218 was administered via IP administration o.d. at a higher dose (4 mg/kg). • From D100 until D113 NX218 was administered via IP administration o.d. at a higher dose (8 mg/kg). • Administration of NX218 was stopped from D114 until animals were sacrificed.
Test compound NX218 in combination with DPZ: • From D01 until D120, mice of group 6 were co-administered with NX218 and DPZ at their respective subactive doses: • NX218: IP o.d., 0.1 mg/kg • DPZ: PO o.d., 0.25 mg/kg
All groups performed one behavioral test every week starting on D08 (7 days after Aβ25-35 peptide injection) to monitor the effects of the compounds:
Spontaneous alternation procedure in the Y-maze (YM, assessing spatial short-term/working memory as described in example 3) on D08, D15, D22, D29, D36, D43, D50, D57, D64, D71, D78, D85, D92, D99, D106, D113 and D120.

PK study in monkey = type: in vivo; settings: for half-life: plasma, iv, 10 mg/kg
Method: (§1) Therefore NX210 PK in animals is followed by the measurement of its cyclic form NX218. First a preliminary PK study in rat was performed in order to validate the method for detecting NX218 in plasma then translated to monkey by performing a more robust PK study with repeated experiments. All PK studies were performed with NaCl 0.9% as vehicle.
In the 3 monkeys tested, data were reproducible after repeated testing at different days (D22, D37 and D51), after bolus IV injection of 10 mg/kg of NX210.

[4] = Preliminary PK study in rat; type: in vivo; settings: slow bolus IV 49 mg/kg of NX210
Method: as §1

[5] = once a day, NX210 0.1 mg/kg, NX218 0.1 mg/kg, DPZ 0.25 mg/kg
[6] = monkey plasma NX218 after bolus IV 10 mg/kg NX210, mean

## COc1cc2c(cc1OC)C(=O)C(CC1CCN(Cc3ccccc3)CC1)C2 (centres unmarked) [DPZ, Donepezil, reference compound]
[1]; PO 0.25 mg/kg once a day
  EL % (Sc.Aβ / Vhc = 100): 445%
  EL Mean, escape latency, retention session: 88.67 s
  STL % (Sc.Aβ / Vhc = 100): 39%
  STL Mean, step-through latency, retention session: 109.33 s
[1]; PO 1 mg/kg once a day
  EL % (Sc.Aβ / Vhc = 100): 122%
  EL Mean, escape latency, retention session: 24.25 s
  STL % (Sc.Aβ / Vhc = 100): 94%
  STL Mean, step-through latency, retention session: 265.83 s
[1]; [5]
  effect on contextual long-term memory deficits (STL and EL) at subactive dose, in words: do not impede
[2]; PO 0.25 mg/kg once a day
  Y-maze % (Sc.Aβ / Vhc = 100): 56%
  Y-maze Mean, percentage of alternation: 41.82%
[2]; PO 1 mg/kg once a day
  Y-maze % (Sc.Aβ / Vhc = 100): 93%
  Y-maze Mean, percentage of alternation: 68.90%
[2]; [5]
  effect on Aβ25-35-induced short-term memory deficits (Y-maze) at subactive dose, in words: do not impede
[3]; Group 5, DPZ PO 1 mg/kg o.d.
  duration of efficacy (Y-maze), in words: efficient only until D36
[3]; Group 5, after 4 weeks of DPZ treatment
  % of alternation at DPZ resistance: 37%
[3]; Group 5: DPZ 1 mg/kg PO o.d. D01-D43, tested D43
  Y-maze (D43) Mean (percentage of alternation): 38.73%
[3]; Group 5: DPZ 1 mg/kg PO o.d. D01-D43, tested D43, Group 1 = 100
  Y-maze (D43) %: 52%
[3]; Group 5: DPZ 1 mg/kg PO o.d. from D01, tested D08
  Y-maze (D08) Mean, percentage of alternation: 72.08%
[3]; Group 5: DPZ 1 mg/kg PO o.d. from D01, tested D08, Group 1 = 100
  Y-maze (D08) %: 98%
[3]; Group 5: DPZ 1 mg/kg PO o.d. from D01, tested D15
  Y-maze (D15) Mean, percentage of alternation: 76.00%
[3]; Group 5: DPZ 1 mg/kg PO o.d. from D01, tested D15, Group 1 = 100
  Y-maze (D15) %: 98%
[3]; Group 5: DPZ 1 mg/kg PO o.d. from D01, tested D22
  Y-maze (D22) Mean, percentage of alternation: 79.07%
[3]; Group 5: DPZ 1 mg/kg PO o.d. from D01, tested D22, Group 1 = 100
  Y-maze (D22) %: 106%
[3]; Group 5: DPZ 1 mg/kg PO o.d. from D01, tested D29
  Y-maze (D29) Mean, percentage of alternation: 62.05%
[3]; Group 5: DPZ 1 mg/kg PO o.d. from D01, tested D29, Group 1 = 100
  Y-maze (D29) %: 80%
[3]; Group 5: DPZ 1 mg/kg PO o.d. from D01, tested D36
  Y-maze (D36) Mean (percentage of alternation): 36.23%
[3]; Group 5: DPZ 1 mg/kg PO o.d. from D01, tested D36, Group 1 = 100
  Y-maze (D36) %: 49%

## N=C(N)NCCC[C@@H]1NC(=O)[C@H](CO)NC(=O)[C@@H](NC(=O)[C@H](CO)NC(=O)[C@H](CO)NC(=O)[C@H](Cc2c[nH]c3ccccc23)NC(=O)CNC(=O)[C@H](CO)NC(=O)[C@@H](N)Cc2c[nH]c3ccccc23)CSSC[C@@H](C(=O)NCC(=O)O)NC(=O)[C@H](CO)NC1=O [NX218, W-S-G-W-S-S-C-S-R-S-C-G] (H-WSGWSSCSRSCG-OH; disulfide 7-11; N-terminus and C-terminus assumed)
PK study in monkey; [6]
  AUC: 960 ng·h/mL
  AUC(0-inf): 1060 ng·h/mL
  Cmax: 19300 ng/mL
  Tmax: 0 h
  clearance: 190 mL/min/kg
PK study in monkey; monkey plasma NX218 after bolus IV 10 mg/kg NX210, mean, read-out: VSS
  Vd: 0.0936 L/kg
PK study in monkey; monkey, bolus IV 10 mg/kg of NX210
  plasma concentration course after injection, in words: rapidly decreased up to 30 minutes
PK study in monkey; monkey, monkey plasma NX218 after bolus IV 10 mg/kg NX210, mean, read-out: t½
  half-life: 12.7 min
PK study in monkey; monkey, monkey, bolus IV 10 mg/kg NX210, NX218 measured, read-out: half-life
  half-life: ~12 min
[4]
  time after injection from which NX218 became impossible to quantify in plasma: 3 h
